Experimental data: ChEMBL document CHEMBL1121788, “Structure-activity studies on narcotic antagonists. 2. N-substituted ethyl 3-(m- or p-hydroxyphenyl) nipecotates” (1981)

Key:
Assay type in all cases: functional
Mus musculus [1] = species on record: Mus musculus; assay: Analgesic activity in mice by the tail-flick method
Mus musculus [2] = species on record: Mus musculus; assay: Analgesic activity in mice by the acetic acid writhing assay
Mus musculus [3] = species on record: Mus musculus; assay: Compound was tested for antagonist activity against morphine sulfate by the mouse tail-flick method
Mus musculus [4] = species on record: Mus musculus; assay: Analgesic activity in mice by the tail-flick method, activity expressed as ED50

Structure (SMILES)	ED50 (Mus musculus [1])	ED50 (Mus musculus [2])	AD50 (Mus musculus [3])	ED50 (Mus musculus [4])
Br.CCOC(=O)C1(c2cccc(O)c2)CCCN(CC2CC2)C1 (configuration not stated)	68 µmol/kg	4 µmol/kg	18.8 µM/kg	–
CCCN1CCCC(C(=O)OCC)(c2ccc(O)cc2)C1.Cl (configuration not stated)	> 305 µmol/kg	62.5 µmol/kg	140 µM/kg	–
CCOC(=O)C1(c2ccc(O)cc2)CCCN(CC2CC2)C1.Cl (configuration not stated)	100 µmol/kg	4.65 µmol/kg	>294 µM/kg	–
Br.CCOC(=O)C1(c2cccc(O)c2)CCCN(C)C1 (configuration not stated)	–	5.66 µmol/kg	24.4 µM/kg	> 290 µmol/kg
Br.CCOC(=O)C1(c2ccc(O)cc2)CCCN(C)C1 (configuration not stated)	> 290 µmol/kg	22.9 µmol/kg	>290 µM/kg	–
C=CCN1CCCC(C(=O)OCC)(c2ccc(O)cc2)C1.Cl (configuration not stated)	> 307 µmol/kg	10.4 µmol/kg	>307 µM/kg	–
C=CCN1CCCC(C(=O)OCC)(c2cccc(O)c2)C1.O=P(O)(O)O (configuration not stated)	> 229 µmol/kg	7.22 µmol/kg	>92 µM/kg	–
CCCN1CCCC(C(=O)OCC)(c2cccc(O)c2)C1.O=P(O)(O)O (configuration not stated)	> 91 µmol/kg	5.59 µmol/kg	59.3 µM/kg	–
CN1CC[C@]23c4c5ccc(O)c4O[C@H]2[C@@H](O)C=C[C@H]3[C@H]1C5 [MORPHINE]	4.9 µmol/kg	0.72 µmol/kg	–	–
C=CCN1CC[C@]23c4c5ccc(O)c4O[C@H]2C(=O)CC[C@@]3(O)[C@H]1C5 [NALOXONE]	0.08 µmol/kg	–	–	–
